Results published in patent US10391100B2, “Combination of aurora kinase inhibitors and anti-CD20 antibodies” (Millennium Pharmaceuticals, Inc., priority 2008, dated 2019).
Marks after values point to notes of the source that are not given here.

Key:
Assay type in all cases: in vivo, human (in female SCID mice)
[1] = test system: Ly19 lymphoma (cell line Ly-19); assay: Sub-cutaneous Ly19 lymphoma model, tumor volume (Example 1); details: for Pct Decrease in AUC Relative to Mean Vehicle AUC: Days 0 through 21; for Change in Slope: log tumor volume, slope (day 21 to 62) − slope (day 13 to 21)
Procedure: (§1) Tumor growth was monitored with vernier calipers. The mean tumor volume was calculated using the formula V=W^2×L/2.
P-values <0.05 were considered significant.

[2] = test system: WSU-Luc lymphoma (cell line WSU-DLCL2); assay: Subcutaneous WSU-Luc lymphoma model, tumor volume (Example 2); details: Compound III-1 3 mg/kg, PO, qd; Days 0 through 20
Procedure: as §1
(§2) The statistical methodology used in these experiments was the same as that described in Example 1 above.

[3] = test system: primary diffuse large B-cell lymphoma PHTX-22-06; assay: Sub-cutaneous primary diffuse large B-cell lymphoma model PHTX-22-06, tumor volume (Example 3); details: Compound III-1 20 mg/kg, PO, bid; Days 0 through 27
Procedure: Tumor growth was monitored with vernier calipers. The mean tumor volume was calculated using the formula V═W^2×L/2.
The animals were inoculated with 2×5 mm^3 tumor mass from primary […] tumor chunk at implant site Flank (trocar).
as §2

[4] = test system: Ly19-Luc disseminated lymphoma; assay: Disseminated Ly19-Luc lymphoma model, Experiment #1 (Example 4); details: for Maximum Percent Body Weight Change / TGI Mean / BW change (maximum body-weight change): Day 24; for TGI: calculated on Day 24; for number of mice remaining by the end of the study: Day 132
Procedure: (§3) The in vivo experiments using the disseminated Ly19-Luc lymphoma model were performed in duplicate. […] Tumor volumes were estimated once weekly throughout the inoculation and treatment period using the Xenogen IVIS® imaging system (Xenogen Corporation, Alameda, Calif.). To image the mice, an intraperitoneal (IP) injection of […] (15 mg/ml), was administered 10 minutes prior to procedure and mice were anesthetized with 2% isofluorane 2-5 minutes throughout the scanning procedure. For Xenogen imaging, each mouse was imaged on dorsal and ventral views. The sum of 2 photon flux measurements was used for the analysis.
The antitumor effects of each treatment group were determined by calculating the percent TGI ([Δ control mean tumor volume−Δ treated mean tumor volume]×100/Δ control mean tumor volume) at the end of treatment. Mice were weighed once weekly for the duration of the study and the maximal percent body weight change was determined during the treatment period. […] Animals were removed from the study when they reached humane endpoints (>20%, body weight loss or paralysis of either both front or hind limbs), the medial survival for each group was determined and the survival rate of treatment groups were compared to control. Treatment groups were evaluated to determine if the effects of combination treatment were synergistic, additive or sub-additive relative to control.
(§4) The photon flux data was log10 transformed, and these values over the treatment period were compared across treatment groups to assess if the differences in the trends over time were statistically significant. A mixed-effects linear regression model using a restricted maximum likelihood was fit to the data. An ANOVA test was performed to determine if there was a statistically significant difference between the treatment groups and control.
(§5) Log10-transformed fold change photon flux values (tumor burden) from baseline were also used to calculate AUC values for each animal. The AUC values from the mice in a given treatment group were then averaged together to generate mean AUC values and associated standard errors.
(§6) A synergy score calculation was used to address the question of whether the effects of the combination treatment were synergistic, additive, or sub-additive relative to the individual treatments.
(§7) To compare the tumor regrowth rates after stopping treatment, mixed-effects piecewise linear regression models were built separately for each treatment group with mice monitored beyond treatment period. All P-values <0.05 were called significant in this report.
(§8) The survival rates of the animals in each treatment group were plotted using Kaplan-Meier curves and the log rank test was used to compare survival rates among pairs of treatment groups.

[5] = test system: Ly19-Luc disseminated lymphoma; assay: Disseminated Ly19-Luc lymphoma model, Experiment #2 (Example 4)
Procedure: as §3
The antitumor effects of each treatment group were determined by calculating the percent TGI ([Δ control mean tumor volume−Δ treated mean tumor volume]×100/Δ control mean tumor volume) at the end of treatment. Mice were weighed once weekly for the duration of the study and the maximal percent body weight change was determined during the treatment period. Animals were monitored for survival up to 132 days following treatment. Animals were removed from the study when they reached humane endpoints (>20%, body weight loss or paralysis of either both front or hind limbs), the medial survival for each group was determined and the survival rate of treatment groups were compared to control. Treatment groups were evaluated to determine if the effects of combination treatment were synergistic, additive or sub-additive relative to control.
as §4, §5, §6, §7, §8
Mice were dosed according to the following treatment groups:
Mice were weighed and tumor volumes were estimated with Xenogen signal (average photon flux) calculation once a week throughout the inoculation and the treatment period and after the treatment until the end of study.
Treatment started 7 days following the inoculation of tumor cells into the tail vein, with an average photon flux measurement of 1×10^7 on treatment Day 0.

[6] = test system: WSU-DLBCL2-Luc disseminated lymphoma; assay: Disseminated WSU-DLBCL2-Luc lymphoma model, first study (QD dosing); details: for Median Survival / Maximum Percent Body Weight Change (%) / TGI Mean (%): 1st study; for Maximum Percent Body Weight Change (%) / TGI Mean (%): Day 21; for Pct Decrease in AUC Relative to Mean Vehicle AUC: first study, PO, QD, log10 photon flux vs day AUC, Days 0 through 21
Procedure: (§9) The Ly19-Luc, WSU-DLBCL2-Luc and PHTX-22-06 models described in these studies are human DLBCL cell lines, transfected with luciferase. These models were grown in immununocomprimised mice subcutaneously on the flank, or disseminated throughout the body by tail vain injection.
(§10) Two separate studies were conducted in the WSU-DLBCL2-luc model.

[7] = test system: WSU-DLBCL2-Luc disseminated lymphoma; assay: Disseminated WSU-DLBCL2-Luc lymphoma model, second study (BID dosing); details: for Median Survival / Maximum Percent Body Weight Change (%) / TGI Mean (%): 2nd study; for TGI Mean (%): Day 22; for number of mice remaining at the end of the study: Day 130; for Pct Decrease in AUC Relative to Mean Vehicle AUC: second study, PO, BID, log10 photon flux vs day AUC, Days 0 through 21
Procedure: as §9, §10

[8] = Compound III-1 3 mg/kg Po/QD × 21 days
[9] = Compound III-1 3 mg/kg po/QD × 21 days
[10] = Compound III-1 10 mg/kg Po/QD × 21 days
[11] = Compound III-1 10 mg/kg po/QD × 21 days
[12] = Compound III-1 3 mg/kg PO QD × 3 wks, Day 23
[13] = Compound III-1 10 mg/kg po/BID × 21 days
[14] = Compound III-1 20 mg/kg po/QD × 21 days (dose holiday Day 9 to Day 13)

COc1cc(Nc2ncc3c(n2)-c2ccc(Cl)cc2C(c2c(F)cccc2OC)=NC3)ccc1C(=O)O [Compound III-1, 4-{[9-chloro-7-(2-fluoro-6-methoxyphenyl)-5H-pyrimido[5,4-d][2]benzazepin-2-yl]amino}-2-methoxybenzoic acid]
Pct Decrease in AUC Relative to Mean Vehicle AUC ([1]; Compound III-1 3 mg/kg qd): 22.9 Pct | Pct Decrease in AUC Relative to Mean Vehicle AUC ([1]; Compound III-1 10 mg/kg bid): 105.6 Pct | Pct Decrease in AUC Relative to Mean Vehicle AUC ([1]; Compound III-1 10 mg/kg qd): 79.3 Pct | Change in Slope ([1]; Compound III-1 10 mg/kg bid): 0.018 | Change in Slope ([1]; Compound III-1 10 mg/kg qd): 0.040 | Pct Decrease in AUC Relative to Mean Vehicle AUC [2]: 19.4 Pct | Pct Decrease in AUC Relative to Mean Vehicle AUC [3]: 79.3 Pct | Median Survival [4, 8]: 40 days | Maximum Percent Body Weight Change [4, 8]: +6.2, Day 24% | TGI Mean [4, 8]: 89.6, % | Median Survival (Days) [4, 9]: 40, p < 0.01^c Days | BW change (maximum body-weight change) [4, 9]: +6.2, Day 24% | TGI [4, 9]: 89.6, p < 0.001% | Median Survival [4, 10]: 63.5 days | Maximum Percent Body Weight Change [4, 10]: +3.3, Day 24% | TGI Mean [4, 10]: 100, % | Median Survival (Days) [4, 11]: 63.5, p < 0.01 Days | BW change (maximum body-weight change) [4, 11]: +3.3%, Day 24 | TGI [4, 11]: 100, p < 0.001% | tolerability ([4]; Compound III-1 at 3 or 10 mg/kg on a QD schedule): well tolerated | number of mice remaining by the end of the study ([4]; single agent Compound III-1 3 mg/kg): 1 out of 10 | number of mice remaining by the end of the study ([4]; single agent Compound III-1 10 mg/kg): 3 out of 10 | Mean BW Day 0 ([5]; Compound III-1 3 mg/kg PO QD × 3 wks, Day 0 (baseline)): 19.2 g | Maximum BW Change (%) Day 22 ([5]; Compound III-1 3 mg/kg PO QD × 3 wks, Day 22): +3.1% | Mean BW Day 22 ([5]; Compound III-1 3 mg/kg PO QD × 3 wks, Day 22, in g (unit assumed)): 19.81 | Mean Photon Flux (Day 23) [5, 12]: 2.34E+08 | TGI Day 23 [5, 12]: 87.7% | tolerability ([5]; Compound III-1 at 3 mg/kg on a QD schedule): well tolerated | Mean AUC ([5]; log10 fold change photon flux vs day, up to Day 23, Compound III-1 3 mg/kg QD): 18.2 | Median Survival [6, 9]: 46.5 days | Maximum Percent Body Weight Change (%) [6, 9]: −3.1, Day 21% | TGI Mean (%) [6, 9]: 50.9, Day 21% | Median Survival [6, 11]: 44 days | Maximum Percent Body Weight Change (%) [6, 11]: −4.5, Day 21% | TGI Mean (%) [6, 11]: 88.2, Day 21% | TGI ([6]; Compound III-1 alone 3 mg/kg QD): 50.9% | TGI ([6]; Compound III-1 alone 10 mg/kg QD): 88.2% | Pct Decrease in AUC Relative to Mean Vehicle AUC ([6]; Compound III-1 3 mg/kg): 21.1% | Pct Decrease in AUC Relative to Mean Vehicle AUC ([6]; Compound III-1 10 mg/kg): 42.0% | Median Survival [7, 13]: 70 days | Maximum Percent Body Weight Change (%) ([7]; Compound III-1 10 mg/kg po/BID × 21 days, Day 19): −3.9, Day 19% | TGI Mean (%) [7, 13]: 99.7, Day 22% | Median Survival [7, 14]: 111.5 days | Maximum Percent Body Weight Change (%) ([7]; Compound III-1 20 mg/kg po/QD × 21 days (dose holiday Day 9 to Day 13), Day 9): −8.9, Day 9% | TGI Mean (%) [7, 14]: 99.7, Day 22% | TGI ([7]; Compound III-1 alone 10 mg/kg BID): 99.7% | TGI ([7]; Compound III-1 alone 20 mg/kg BID): 99.7% | mean maximum body weight loss ([7]; Compound III-1 at 20 mg/kg BID, Day 9): 8.9% | number of mice remaining at the end of the study ([7]; 10 mg/kg single agent Compound III-1): 1 out of 10 | number of mice remaining at the end of the study ([7]; 20 mg/kg Compound III-1 single agent): 5 out of 10 | Pct Decrease in AUC Relative to Mean Vehicle AUC ([7]; Compound III-1 10 mg/kg): 94.0% | Pct Decrease in AUC Relative to Mean Vehicle AUC ([7]; Compound III-1 20 mg/kg): 96.6%
